Patent US11213055B2, “Fermentate compositions and methods of making and using the same” (Third Wave Bioactives, LLC, priority 2017, dated 2022)
Several values for one entry are separate records, joined by “and”; a condition that tells them apart may be missing. Equal entries are not always repeated.

Key:
[1] = tested on: Zygosaccharomyces rouxii strain, Y-229, and Torulaspora delbruckii strain, Y-866; assay: yeast challenge in dark chocolate sauce, yeast enumeration; type: cell-based
Experimental: (§1) The treatments were prepared by dissolving the spray dried fermentate in 15 ml sterile water and then mixed into the sauce using sterile hand whisks. One of the L. reuteri fermentate treatments was incubated for 30 minutes in a water bath set at 60° C. prior to addition to the chocolate sauce to determine how heat would affect the treatment since traditional manufacturing of the chocolate sauce includes a heating step.
(§2) All jars were then inoculated with a dual yeast challenge of Zygosaccharomyces rouxii strain, Y-229, and Torulaspora delbruckii strain, Y-866, which were both obtained from the ARS NRRL Culture Collection. The yeast strains were grown in Potato Dextrose broth at 32° C. overnight, then diluted in sterile water to approximately 2.0×10^5 CFU/ml. The two strains were then combined and 5 ml of the combination culture was added to each jar to provide a challenge dose of approximately 1.0×10^3 CFU/ml.
(§3) A 10-gram sample was removed from each jar immediately after challenge inoculation to analyze the pH and the initial yeast count in duplicate on Potato Dextrose Agar acidified with 10% Tartaric Acid (PDA4-TA) as well as the total aerobic plate count (APC) in duplicate on Tryptic Soy Agar (TSA). Once solidified, the PDA+TA plates were incubated at 28° C. for 72 hours and the TSA plates were incubated at 32° C. for 48 hours, then counted to determine CFU/g. The jars were kept at room temperature (˜20-22° C.) in a dark cabinet for the first 21 days, then moved to an incubator set at 28° C. for the duration of the study. On days 4, 7, 11, 14, 18, 21, 28, 35, 49, 56, 63, 94, 109, and 124, a 10-gram sample was removed from each jar to analyze the change in pH, as well as the yeast and APC levels in duplicate as described above.

[2] = tested on: total aerobic plate count (APC); assay: total aerobic plate count (APC) in dark chocolate sauce; type: cell-based
Experimental: as §1, §2, §3

## C/C=C/C=C/C(=O)[O-].[K+] [Potassium sorbate]
[1]; dark chocolate sauce
  day at which resurgence of yeast started: 49 days
  day at which yeast levels were no longer detectable (<10 CFU/g): 35 days
[1]; day 0
  Enumeration of yeast in dark chocolate sauce, AVG: 2.00E+03 CFU/g
  Enumeration of yeast in dark chocolate sauce, duplicate counts: 1.73E+03 CFU/g and 2.27E+03 CFU/g
[1]; day 4
  Enumeration of yeast in dark chocolate sauce, AVG: 1.23E+03 CFU/g
  Enumeration of yeast in dark chocolate sauce, duplicate counts: 9.49E+02 CFU/g and 1.51E+03 CFU/g
[1]; day 7
  Enumeration of yeast in dark chocolate sauce, AVG: 9.08E+02 CFU/g
  Enumeration of yeast in dark chocolate sauce, duplicate counts: 6.43E+02 CFU/g and 1.17E+03 CFU/g
[1]; day 11
  Enumeration of yeast in dark chocolate sauce, AVG: 1.02E+03 CFU/g
  Enumeration of yeast in dark chocolate sauce, duplicate counts: 1.10E+03 CFU/g and 9.43E+02 CFU/g
[1]; day 14
  Enumeration of yeast in dark chocolate sauce, AVG: 5.48E-02 CFU/g
  Enumeration of yeast in dark chocolate sauce, duplicate counts: 4.99E+02 CFU/g and 5.98E+02 CFU/g
[1]; day 18
  Enumeration of yeast in dark chocolate sauce, AVG: 3.30E+02 CFU/g
[1]; day 21
  Enumeration of yeast in dark chocolate sauce, AVG: 2.06E+02 CFU/g
[1]; day 28
  Enumeration of yeast in dark chocolate sauce, AVG: 1.26E+02 CFU/g
  Enumeration of yeast in dark chocolate sauce, duplicate counts: 1.51E+02 CFU/g and 1.00E+02 CFU/g
[1]; day 35
  Enumeration of yeast in dark chocolate sauce, AVG: <10 CFU/g
  Enumeration of yeast in dark chocolate sauce, duplicate counts: <10 CFU/g
[1]; day 49
  Enumeration of yeast in dark chocolate sauce, AVG: 1.53E+01 CFU/g
[1]; day 56
  Enumeration of yeast in dark chocolate sauce, AVG: <10 CFU/g
  Enumeration of yeast in dark chocolate sauce, duplicate counts: <10 CFU/g
[1]; day 63
  Enumeration of yeast in dark chocolate sauce, AVG: <10 CFU/g
  Enumeration of yeast in dark chocolate sauce, duplicate counts: <10 CFU/g
[1]; day 94
  Enumeration of yeast in dark chocolate sauce, AVG: 3.71E+02 CFU/g
  Enumeration of yeast in dark chocolate sauce, duplicate counts: 3.07E+02 CFU/g and 4.35E+02 CFU/g
[1]; day 109
  Enumeration of yeast in dark chocolate sauce, AVG: 1.50E+02 CFU/g
[1]; day 124
  Enumeration of yeast in dark chocolate sauce, AVG: 1.21E+04 CFU/g
  Enumeration of yeast in dark chocolate sauce, duplicate counts: 1.25E+04 CFU/g and 1.17E+04 CFU/g
[2]; day 0
  APC, CFU/g (duplicate counts): 2.83E+03 CFU/g and 2.94E+03 CFU/g
[2]; day 0, average of duplicate counts
  APC, AVG: 2.89E+03 CFU/g
[2]; day 4
  APC, CFU/g (duplicate counts): 2.57E+03 CFU/g and 2.96E+03 CFU/g
[2]; day 4, average of duplicate counts
  APC, AVG: 2.77E+03 CFU/g
[2]; day 7
  APC, CFU/g (duplicate counts): 2.47E+03 CFU/g and 3.12E+03 CFU/g
[2]; day 7, average of duplicate counts
  APC, AVG: 2.79E+03 CFU/g
[2]; day 11
  APC, CFU/g (duplicate counts): 2.24E+03 CFU/g and 2.49E+03 CFU/g
[2]; day 11, average of duplicate counts
  APC, AVG: 2.36E+03 CFU/g
[2]; day 14
  APC, CFU/g (duplicate counts): 1.59E+03 CFU/g and 2.13E+03 CFU/g
[2]; day 14, average of duplicate counts
  APC, AVG: 1.86E+03 CFU/g
[2]; day 18
  APC, CFU/g (duplicate counts): 1.44E+03 CFU/g and 1.56E+03 CFU/g
[2]; day 18, average of duplicate counts
  APC, AVG: 1.50E+03 CFU/g
[2]; day 21
  APC, CFU/g (duplicate counts): 1.13E+03 CFU/g and 1.31E+03 CFU/g
[2]; day 21, average of duplicate counts
  APC, AVG: 1.22E+03 CFU/g
[2]; day 28
  APC, CFU/g (duplicate counts): 8.53E+02 CFU/g and 9.84E+02 CFU/g
[2]; day 28, average of duplicate counts
  APC, AVG: 9.19E+02 CFU/g
[2]; day 35
  APC, CFU/g (duplicate counts): 7.22E+02 CFU/g and 6.82E+02 CFU/g
[2]; day 35, average of duplicate counts
  APC, AVG: 7.02E+02 CFU/g
[2]; day 49
  APC, CFU/g (duplicate counts): 6.85E+02 CFU/g and 6.14E+02 CFU/g
[2]; day 49, average of duplicate counts
  APC, AVG: 6.50E+02 CFU/g
[2]; day 56
  APC, CFU/g (duplicate counts): 5.72E+02 CFU/g and 3.71E+02 CFU/g
[2]; day 56, average of duplicate counts
  APC, AVG: 4.71E+02 CFU/g
[2]; day 63
  APC, CFU/g (duplicate counts): 5.89E+02 CFU/g and 6.79E+02 CFU/g
[2]; day 63, average of duplicate counts
  APC, AVG: 6.34E+02 CFU/g
[2]; day 94
  APC, CFU/g (duplicate counts): 5.54E+02 CFU/g and 7.62E+02 CFU/g
[2]; day 94, average of duplicate counts
  APC, AVG: 6.58E+02 CFU/g
[2]; day 109
  APC, CFU/g (duplicate counts): 6.36E+02 CFU/g and 5.52E+02 CFU/g
[2]; day 109, average of duplicate counts
  APC, AVG: 5.94E+02 CFU/g
[2]; day 124
  APC, CFU/g (duplicate counts): 2.52E+02 CFU/g and 3.78E+02 CFU/g
[2]; day 124, average of duplicate counts
  APC, AVG: 3.15E+02 CFU/g
